The source of these data is ChEMBL document CHEMBL1154454, “Tetrahydronaphthyl azole oxime ethers: the conformationally rigid analogues of oxiconazole as antibacterials” (2009).

≈ marks a conversion by molar mass, not a printed value.

The test system of assay [1] is Pseudomonas aeruginosa. The assay is described as follows: Antimicrobial activity against Pseudomonas aeruginosa ATCC BAA427 after 24 hrs by standard microbroth dilution assay. Format: functional.
In the next assay the test system is Cryptococcus neoformans. The assay is described as follows: Antimicrobial activity against Cryptococcus neoformans after 72 hrs by standard microbroth dilution assay. Format: functional.
For assay [2], the system named is Escherichia coli. Briefly: microbe, parasite or virus in culture. The note with it: ATCC 9637, 24 h. Format: functional.
Description: (§1) Antimicrobial activity against Escherichia coli ATCC 9637 after 24 hrs by standard microbroth dilution assay
The test system of another assay is Candida albicans. Briefly: Antimicrobial activity against Candida albicans after 48 hrs by standard microbroth dilution assay. Format: functional.
For assay [3], the system named is Staphylococcus aureus. The assay is described as follows: microbe, parasite or virus in culture. Format: functional. The note with it: ATCC 25923, 24 h.
Description: (§2) Antimicrobial activity against Staphylococcus aureus ATCC 25923 after 24 hrs by standard microbroth dilution assay
The next assay concerns Aspergillus fumigatus. Briefly: Antimicrobial activity against Aspergillus fumigatus after 72 hrs by standard microbroth dilution assay. Format: functional.
The next assay has as its system Candida parapsilosis. Briefly: Antimicrobial activity against Candida parapsilosis after 48 hrs by standard microbroth dilution assay. Format: functional. The following applies: Lodderomyces parapsilosis.
A further assay has as its system Sporothrix schenckii. The assay is described as follows: Antimicrobial activity against Sporothrix schenckii after 72 hrs by standard microbroth dilution assay. Format: functional.
Assay [4] has as its system Klebsiella pneumoniae. The assay is described as follows: microbe, parasite or virus in culture. The note with it: ATCC 27736, 24 h. Format: functional.
Description: (§3) Antimicrobial activity against Klebsiella pneumoniae ATCC 27736 after 24 hrs by standard microbroth dilution assay
The subject of assay [5] is Trichophyton mentagrophytes. The assay is described as follows: Antimicrobial activity against Trichophyton mentagrophytes after 96 hrs by standard microbroth dilution assay. Format: functional.
Assay [6] has as its system Klebsiella pneumoniae. The following applies: ATCC 27736.
Description: as §3
The subject of assay [7] is Pseudomonas aeruginosa.
For assay [8], the system named is Staphylococcus aureus. The following applies: ATCC 25923.
Description: as §2
Assay [9] concerns Escherichia coli. The note with it: ATCC 9637.
Description: as §1

`Fc1cccc2c1CCC(Cn1ccnc1)/C2=N/OCc1cccc(Cl)c1` (centres undefined): the MIC against Pseudomonas aeruginosa [1] was above 50 µg/mL; against Cryptococcus neoformans it was above 50 µg/mL; against Escherichia coli [2], 0.391 µg/mL (≈ 1.02 µM); against Candida albicans it was above 50 µg/mL; with Staphylococcus aureus [3] it was 0.781 µg/mL (≈ 2.03 µM); in the assay on Aspergillus fumigatus it was above 50 µg/mL. Besides, the MIC with Candida parapsilosis was above 50 µg/mL; against Sporothrix schenckii it was above 50 µg/mL; against Klebsiella pneumoniae [4], 1.56 µg/mL (≈ 4.07 µM); in assay [5] it was above 50 µg/mL.

As for `Clc1cccc(CO/N=C2\c3cccc(Cl)c3CCC2Cn2cncn2)c1` (centres undefined), the MIC against Pseudomonas aeruginosa [1] was above 50 µg/mL; in the assay with Cryptococcus neoformans, above 50 µg/mL; against Escherichia coli [2], 6.25 µg/mL (≈ 15.6 µM); in the assay with Candida albicans, above 50 µg/mL; in the assay with Staphylococcus aureus [3] it was above 50 µg/mL; against Aspergillus fumigatus it was above 50 µg/mL. The MIC (in the assay with Candida parapsilosis; against Sporothrix schenckii; with Klebsiella pneumoniae [4]; in assay [5]) was above 50 µg/mL throughout.

Take GENTAMICIN: the MIC in the assay on Klebsiella pneumoniae [6] is 0.78 µg/mL; in the assay with Pseudomonas aeruginosa [7], 25 µg/mL; in the assay with Staphylococcus aureus [8] it was 6.25 µg/mL; against Escherichia coli [9] it was 0.18 µg/mL.

With `Cc1cccc2c1CCC(Cn1cncn1)/C2=N/OCc1ccccc1` (centres undefined), the MIC is above 50 µg/mL with Pseudomonas aeruginosa [1]; above 50 µg/mL against Cryptococcus neoformans; 25 µg/mL (≈ 72.2 µM) against Escherichia coli [2]; above 50 µg/mL in the assay with Candida albicans; above 50 µg/mL in the assay on Staphylococcus aureus [3]; above 50 µg/mL with Aspergillus fumigatus. Moreover, the MIC (in the assay with Candida parapsilosis; with Sporothrix schenckii; against Klebsiella pneumoniae [4]; in [5]) was above 50 µg/mL throughout.

Take `Fc1cccc2c1CCC(Cn1cncn1)/C2=N/OCc1ccccc1` (centres undefined): the MIC is above 50 µg/mL with Pseudomonas aeruginosa [1]; above 50 µg/mL in the assay on Cryptococcus neoformans; 25 µg/mL (≈ 71.3 µM) with Escherichia coli [2]; above 50 µg/mL against Candida albicans; above 50 µg/mL in the assay on Staphylococcus aureus [3]; above 50 µg/mL in the assay on Aspergillus fumigatus. Moreover, the MIC (with Candida parapsilosis; in the assay on Sporothrix schenckii; against Klebsiella pneumoniae [4]; in assay [5]) was above 50 µg/mL each time.

As to `Brc1cccc2c1CCC(Cn1ccnc1)/C2=N/OCc1ccccc1` (centres undefined), the MIC against Pseudomonas aeruginosa [1] is above 50 µg/mL; with Cryptococcus neoformans it was above 50 µg/mL; against Escherichia coli [2], 0.391 µg/mL (≈ 0.953 µM); against Candida albicans, above 50 µg/mL; in the assay with Staphylococcus aureus [3], 1.56 µg/mL (≈ 3.81 µM); with Aspergillus fumigatus, 50 µg/mL (≈ 122 µM). The MIC with Candida parapsilosis is above 50 µg/mL; in the assay with Sporothrix schenckii, above 50 µg/mL; with Klebsiella pneumoniae [4], 3.12 µg/mL (≈ 7.62 µM); in [5], above 50 µg/mL.

`Cc1cccc2c1CCC(Cn1ccnc1)/C2=N/OCc1ccccc1` (centres undefined): the MIC is above 50 µg/mL against Pseudomonas aeruginosa [1]; above 50 µg/mL in the assay with Cryptococcus neoformans; 0.781 µg/mL (≈ 2.26 µM) in the assay with Escherichia coli [2]; above 50 µg/mL in the assay on Candida albicans; 1.56 µg/mL (≈ 4.52 µM) against Staphylococcus aureus [3]; above 50 µg/mL against Aspergillus fumigatus. The MIC in the assay with Candida parapsilosis is above 50 µg/mL; in the assay with Sporothrix schenckii it was above 50 µg/mL; against Klebsiella pneumoniae [4] it was 6.25 µg/mL (≈ 18.1 µM); in assay [5], above 50 µg/mL.

Turning to `Clc1cccc(CO/N=C2\c3ccccc3CCC2Cn2ccnc2)c1` (centres undefined), the MIC with Pseudomonas aeruginosa [1] is above 50 µg/mL; with Cryptococcus neoformans, above 50 µg/mL; in the assay on Escherichia coli [2] it was 0.391 µg/mL (≈ 1.07 µM); against Candida albicans, above 50 µg/mL; with Staphylococcus aureus [3], 1.56 µg/mL (≈ 4.27 µM); in the assay with Aspergillus fumigatus it was 25 µg/mL (≈ 68.3 µM). In addition, the MIC against Candida parapsilosis is above 50 µg/mL; against Sporothrix schenckii, above 50 µg/mL; in the assay on Klebsiella pneumoniae [4] it was 3.12 µg/mL (≈ 8.54 µM); in assay [5] it was above 50 µg/mL.

Regarding `Clc1cccc(CO/N=C2/c3ccccc3CCC2Cn2ccnc2)c1` (centres undefined), the MIC is above 50 µg/mL with Pseudomonas aeruginosa [1]; above 50 µg/mL with Cryptococcus neoformans; above 50 µg/mL in the assay on Escherichia coli [2]; above 50 µg/mL in the assay with Candida albicans; 6.25 µg/mL (≈ 17.1 µM) in the assay with Staphylococcus aureus [3]; above 50 µg/mL against Aspergillus fumigatus. Also, the MIC in the assay on Candida parapsilosis is above 50 µg/mL; against Sporothrix schenckii, above 50 µg/mL; against Klebsiella pneumoniae [4], above 50 µg/mL; in assay [5], 25 µg/mL (≈ 68.3 µM).

`Clc1cccc2c1CCC(Cn1ccnc1)/C2=N\OCc1ccccc1` (centres undefined): the MIC was above 50 µg/mL in the assay on Pseudomonas aeruginosa [1]; above 50 µg/mL against Cryptococcus neoformans; above 50 µg/mL in the assay on Escherichia coli [2]; 50 µg/mL (≈ 137 µM) against Candida albicans; 3.12 µg/mL (≈ 8.54 µM) against Staphylococcus aureus [3]; above 50 µg/mL against Aspergillus fumigatus. Also, the MIC against Candida parapsilosis was above 50 µg/mL; with Sporothrix schenckii, 50 µg/mL (≈ 137 µM); against Klebsiella pneumoniae [4], above 50 µg/mL; in [5], 12.5 µg/mL (≈ 34.2 µM).

For the compound `Fc1cccc2c1CCC(Cn1cncn1)/C2=N/OCc1cccc(Cl)c1` (centres undefined), the MIC is above 50 µg/mL in the assay with Pseudomonas aeruginosa [1]; above 50 µg/mL against Cryptococcus neoformans; 50 µg/mL (≈ 130 µM) in the assay with Escherichia coli [2]; above 50 µg/mL against Candida albicans; above 50 µg/mL in the assay with Staphylococcus aureus [3]; above 50 µg/mL in the assay on Aspergillus fumigatus. Moreover, the MIC (against Candida parapsilosis; against Sporothrix schenckii; in the assay with Klebsiella pneumoniae [4]; in [5]) was above 50 µg/mL throughout.

As to `Clc1cccc2c1CCC(Cn1ccnc1)/C2=N/OCc1ccccc1` (centres undefined), the MIC was above 50 µg/mL against Pseudomonas aeruginosa [1]; above 50 µg/mL in the assay with Cryptococcus neoformans; 0.391 µg/mL (≈ 1.07 µM) against Escherichia coli [2]; above 50 µg/mL against Candida albicans; 1.56 µg/mL (≈ 4.27 µM) with Staphylococcus aureus [3]; 25 µg/mL (≈ 68.3 µM) in the assay on Aspergillus fumigatus. Also, the MIC in the assay with Candida parapsilosis is above 50 µg/mL; in the assay with Sporothrix schenckii it was above 50 µg/mL; against Klebsiella pneumoniae [4], 6.25 µg/mL (≈ 17.1 µM); in assay [5], above 50 µg/mL.

Regarding `Clc1cccc(CO/N=C2/c3cccc(Br)c3CCC2Cn2ccnc2)c1` (centres undefined), the MIC was above 50 µg/mL against Pseudomonas aeruginosa [1]; above 50 µg/mL against Cryptococcus neoformans; above 50 µg/mL against Escherichia coli [2]; 50 µg/mL (≈ 112 µM) with Candida albicans; 1.56 µg/mL (≈ 3.51 µM) against Staphylococcus aureus [3]; above 50 µg/mL with Aspergillus fumigatus. For the same compound, the MIC in the assay on Candida parapsilosis was above 50 µg/mL; against Sporothrix schenckii, 50 µg/mL (≈ 112 µM); in the assay with Klebsiella pneumoniae [4] it was above 50 µg/mL; in [5] it was 12.5 µg/mL (≈ 28.1 µM).

As to `Clc1cccc(CO/N=C2\c3cccc(Br)c3CCC2Cn2cncn2)c1` (centres undefined), the MIC in the assay on Pseudomonas aeruginosa [1] is above 50 µg/mL; in the assay on Cryptococcus neoformans, above 50 µg/mL; with Escherichia coli [2], 3.12 µg/mL (≈ 7.01 µM); against Candida albicans, above 50 µg/mL; against Staphylococcus aureus [3] it was 6.25 µg/mL (≈ 14 µM); in the assay on Aspergillus fumigatus, above 50 µg/mL. Besides, the MIC (against Candida parapsilosis; in the assay on Sporothrix schenckii; with Klebsiella pneumoniae [4]; in assay [5]) was above 50 µg/mL in each case.

Take `Clc1cccc2c1CCC(Cn1cncn1)/C2=N/OCc1ccccc1` (centres undefined): the MIC against Pseudomonas aeruginosa [1] was above 50 µg/mL; with Cryptococcus neoformans, above 50 µg/mL; in the assay with Escherichia coli [2], 25 µg/mL (≈ 68.1 µM); in the assay on Candida albicans it was above 50 µg/mL; in the assay with Staphylococcus aureus [3] it was above 50 µg/mL; with Aspergillus fumigatus, above 50 µg/mL. Also, the MIC (against Candida parapsilosis; against Sporothrix schenckii; with Klebsiella pneumoniae [4]; in assay [5]) was above 50 µg/mL each time.

As to `Fc1cccc2c1CCC(Cn1ccnc1)/C2=N/OCc1ccccc1` (centres undefined), the MIC is above 50 µg/mL against Pseudomonas aeruginosa [1]; above 50 µg/mL against Cryptococcus neoformans; 0.781 µg/mL (≈ 2.24 µM) in the assay on Escherichia coli [2]; above 50 µg/mL against Candida albicans; 3.12 µg/mL (≈ 8.94 µM) against Staphylococcus aureus [3]; above 50 µg/mL with Aspergillus fumigatus. The MIC in the assay on Candida parapsilosis is above 50 µg/mL; against Sporothrix schenckii, above 50 µg/mL; against Klebsiella pneumoniae [4], 6.25 µg/mL (≈ 17.9 µM); in assay [5], above 50 µg/mL.
